Data reported in patent US6001383A (priority 1994, dated 1999).
Like-named read-outs stand apart in the source and are kept apart here.

How the values were obtained:
[1] = tested on: Cryptotermes domesticus; assay: Toxicity to dry wood termites, C. domesticus; assay type: in vivo; conditions: 24 h, 30° C., survival after one week
Experimental: (§1) Termites were obtained from cultures kept at 30° C. and 80% RH. Termites were transferred to 120 mL bottles fitted with Mininert valved lids and a 325 mg chip of plywood and sealed whilst at 80% RH and 30° C. All fumigations were performed in duplicate with a sample size of 10-11 insects for C. brevis, 25 insects for C. cyanocephalos and 22 insects for C. domesticus. An appropriate volume of air was removed from the sample bottles prior to the addition of fumigants. Dosed samples were analysed on a gas chromatograph to ensure concentrations were as predicted. A second set of gas chromatograph readings was taken prior to airing to ensure fumigant concentrations had remained static throughout the exposure period. […]
(§2) C2 N2 concentrations were measured on a Varian 3300 Gas Chromatograph equipped with a Thermionic Specific Detactor after separation on a DBwax column of internal diameter 0.53 mm. Phosphine concentrations were measured on a Shimadzu 6AM equipped with a Flame Photometric Detector. Methyl bromide concentrations were measured on a Shimadzu 6AM equipped with a Flame Ionisation Detector after separation on a GasChromQ with 20% OV-IO1 column.
(§3) After 24 hours exposure, termites and wood chips were transferred to plastic Petri dishes each containing a large piece of plywood. Initial and one week survivals were recorded.

[2] = tested on: Cryptotermes brevis; assay: Toxicity to dry wood termites, C. brevis; assay type: in vivo; conditions: 24 h, 30° C., survival after one week
Experimental: as §1, §2, §3

[3] = tested on: Cryptotermes cyanocephalos; assay: Toxicity to dry wood termites, C. cyanocephalos; assay type: in vivo; conditions: 24 h, 30° C., survival after one week
Experimental: as §1, §2, §3

[4] = Sorption and desorption on wheat, comparative; conditions: 25 g wheat; C2 N2 10 mg/L, phosphine 2 mg/L, methyl bromide 32 mg/L
Experimental: Samples of wheat (25 g) were placed in 250 mL conical flasks of known volume. The flasks were stoppered with a gas tight stopper containing a rubber septum (injection port). Flasks were dosed with C2 N2 (10 mg/L), phosphine (2 mg/L) or methyl bromide (32 mg/L). After 24 h the headspace concentrations were determined by gas chromatography. Each flask was then opened and the wheat sample aired briefly by pouring the wheat from one container to another and then the remaining sorbed fumigant was estimated by grinding the wheat sample in a gas-tight Waring blender canister fitted was a sampling port and determining the released fumigant by head space analysis.

[5] = tested on: Rhyzopertha dominica (F.), strain Rd2; conditions: R. dominica adults, cited from earlier work
[6] = cited from earlier work; for carcinogenicity: Sax and Lewis, 1989; for TLV value: worker safety limit
[7] = cited from earlier work
[8] = tested on: Carnation; assay: Phytotoxicity to cut flowers, Carnation; conditions: methyl bromide 30 mg L^-1, 2 h; control 5
Experimental: (§4) Field Carnations and Leucadendrons were purchased from a local wholesale florist. […]
(§5) After 2 hours the drums were opened and allowed to air in a fume hood, the flowers were removed from the drums, the stems trimmed and the bunches placed in water and left in the fume hood to air for 2 hours then placed in a cool room.
(§6) Assessment of the phytoxicity of the fumigants was done after one week of cold storage.
(§7) The phytoxicity assessments were made by a panel of six people who were asked independently to give a value out of 10 (Where 10 is excellent and 1 is unsaleable) for each flower and each treatment. The figures given below are the averaged results.

[9] = tested on: Leucadendron; assay: Phytotoxicity to cut flowers, Leucadendron; conditions: methyl bromide 30 mg L^-1, 2 h; control 7
Experimental: as §4, §5, §6, §7

P [phosphine]
applied concentration giving 100% mortality [1]: 0.22 mgL^-1
applied concentration giving 100% mortality [2]: 0.43 mgL^-1
applied concentration giving 100% mortality [3]: 0.43 mgL^-1
initial fumigant remaining in headspace after 24 h [4]: 91%

ClCCCl [ethylene dichloride]
CT product for control of adults ([5]; Monro, 1967): 636.0 mghL^-1

O=C=S [carbonyl sulphide]
CT product for control of adults ([5]; Desmarchelier 1994): 68.7 mghL^-1

S=C=S [carbon disulphide]
CT product for control of adults ([5]; Monro, 1967): 294.0 mghL^-1

C=O [formaldehyde]
carcinogenicity [6]: suspect carcinogen
TLV value [6]: 1 ppm

C1CO1 [ethylene oxide]
carcinogenicity [6]: suspect carcinogen
TLV value [6]: 0.1 ppm
solubility in water [7]: poorly soluble in water

CBr [methyl bromide]
phytotoxicity score (10 excellent, 1 unsaleable) [8]: 3
phytotoxicity score (10 excellent, 1 unsaleable) [9]: 6
applied concentration giving 100% mortality [1]: 4.35 mgL^-1
applied concentration giving 100% mortality [2]: 1.74 mgL^-1
applied concentration giving 100% mortality [3]: 3.47 mgL^-1
initial fumigant remaining in headspace after 24 h [4]: 69%
CT product for control of adults ([5]; Monro, 1967): 33.0 mghL^-1
